Results as given in patent US20020168365A1, “Method for modulating granzyme B uptake and for identifying modulators thereof” (priority 2000, published 2002).

Assays:
Jurkat cells [1] = assay: TUNEL and annexin V apoptosis assays with grB and AD; type: cell-based, human; details: for percentage of TUNEL positive cells after incubation with grB and AD / percentage of annexin V positive cells after incubation with grB and AD: with 25 mM monosaccharide; for TUNEL positive cells: 3 hr with pretreated grB and AD
Description: (§1) GrB was treated for 1 hr at 37° C. in a phosphate-free (saline) or a high-phosphate (64.5 mM Na2HPO4.7H2O, 21 mM KH2PO4) buffer with calf intestinal alkaline phosphatase (1-10 U), 20 nM of the 37 kDa catalytic subunit of recombinant protein phosphatase-1 (Bagu et al, 1997), or with vehicle control. Cells were then incubated with the treated grB at 4° C. for 30-60 min. For the TUNEL or annexin V assays, cells were then washed twice before incubation at 37° C. with AD.
(§2) M6P and various other monosaccharides at different concentrations were added to cells for 15 min at 4° C. before the addition of labeled grB, or at room temperature before the addition of grB and AD.
(§3) GrB was incubated with sCI-MPR at various concentrations in PBS/0.1% BSA for 30 min at 4° C. Subsequently, cells were incubated with grB/sCI-MPR for 30-60 min at 4° C. and washed twice, before analysis of binding, or before the addition of AD for TUNEL and annexin V analysis.
For the in vitro killing assays, 10 pfu per cell of replication-deficient adenovirus (AD) were added subsequent to grB addition. Analysis of DNA fragmentation by TUNEL analysis has been described previously (Heibein et al., 1999). TUNEL materials (Roche Diagnostics) were used as per the manufacturer's instructions. Phosphatidylserine externalization was measured as previously described (Heibein et al., 1999) using annexin V-FITC (PharMingen). Percent specific TUNEL/annexin V positive cells was calculated as: [(% positive labeling cells with grB and AD-% positive labeling cells without grB and AD)/(100-% positive labeling cells without grB and AD)]×100.
Cells were resuspended at 10^6 cells/ml in 0.1% BSA/DMEM. Adenovirus (10 PFU/cell) and granzyme B (grB) were added directly to the cell suspension. Cells were incubated at 37° C. for 3 h. For staurosporine killing, cells were resuspended at 10^6 cells/ml in their normal growth medium and staurosporine (2.5 μM) was added directly to the cell suspension. Cells were incubated at 37° C. for 2, 4 and 8 h.
(§4) DNA fragmentation was monitored by flow cytometric analysis via the terminal deoxynucleotidyltransferase-mediated dUTP-biotin nick end labeling (TUNEL) method. Flow cytometric analysis was performed on a Becton Dickinson FACScanθ flow cytometer equipped with an argon-ion laser with 15 mW of excitation at 488 nm. Emission wavelengths were detected through the FL1 channel. Data were acquired on 10,000 cells per sample with light scatter signals at linear gain and fluorescence signals at logarithmic gain. Percent specific TUNEL positive cells was calculated as follows: [(% positive labeling cells with grB and AD−% positive labeling cells without grB and AD)/(AD−% positive labeling cells without grB and AD)]×100.
as §4, with “Phosphatidylserine externalization” for “DNA fragmentation”, “monitored using the ApoAlertθ annexin V apoptosis kit (Clontech) according to the protocol provided” for “monitored”, “by” for “by flow cytometric analysis via”, “manufacturer.” for “terminal deoxynucleotidyltransferase-mediated dUTP-biotin nick end labeling (TUNEL) method.”, “Annexin V” for “TUNEL”

Jurkat cells [2] = assay: GrB binding assay (flow cytometry, labeled grB at 4° C.); design: species or system human; details: for effect on grB binding: monosaccharide with labeled grB, 4° C. (FIG. 3A)
Description: Cells (1-2×10^5) were washed twice and resuspended in buffer before the addition of grB-biotin or -OG in a final volume of 20 μl for a 30-60 min incubation and washed again twice. In the case of grB-biotin, cells were then incubated with streptavidin-cychrome for 20 min and washed twice. Unless otherwise indicated, ˜25 ng grB-biotin or -OG was used to label cells. All steps of the assay were carried out at 4° C. to prevent intracellular uptake of grB. PBS/0.1% BSA buffer was used throughout the procedure. In some cases, results are presented as the relative MFI, which represents the MFI of the grB-labeled population minus the MFI of the unlabeled population.
as §1, §2, §3

[3] = test system: MPR^− and CI-MPR^+ target cells; assay: CTL killing assays (^3H-thymidine release and ^51Cr-release); type: cell-based, murine; details: Mus musculus; CTL effectors with targets in the presence of M6P (data not shown); read-out: half-maximal inhibition of target cell DNA fragmentation
Description: The ^51Cr- (lysis) and ^3H-thymidine (DNA fragmentation) release assays have been previously described (Darmon et al., 1996). Target cells (1×10^4 cells/well for the ^51Cr-release assay and 5×10^4 cells/well for the ^3H-thymidine-release assay) were incubated with CTL at various E:T ratios (effector:target) in the presence or absence of blocking murine- (1 μg/ml) or human- (200 ng/ml) anti-Fas mAb. Data from one experiment represent the mean of data from triplicate samples. Typically, spontaneous ^51Cr-release and DNA fragmentation was less than 10% and 5%, respectively. Percent specific lysis and DNA fragmentation was calculated as: [(sample cpm−spontaneous cpm)/(total cpm−spontaneous cpm)]×100.

CI-MPR^+ cells = assay: GrB uptake assay (confocal microscopy, grB-OG at 37° C.); type: cell-based, murine L cells transfected with human CI-MPR; details: 20 mM M6P
Description: Cells on coverslips were incubated for 20 min at 37° C. with DMEM/0.1% BSA containing 25 ng grB-OG that was untreated, mock-treated, or alkaline phosphatase-treated as described above. For the M6P inhibition studies, cells were treated with 20 mM M6P in DMEM/0.1% BSA for 10 min at 37° C., before the addition of grB-OG, as above. Cells were then washed twice with PBS/0.1% BSA, fixed with 2% paraformaldehyde in PBS, and allowed to dry briefly before the coverslips were mounted and examined by confocal microscopy. Imaging was performed with a Zeiss Axiovertθ 100M LSM510 laser scan microscope and analyzed using LSM510 software.

MPRs in all cell lines = assay: GrB-OG binding after M6P preincubation (Example 2, FIG. 8); details: 20 mM M6P, 37° C., 15 minutes prior to grB-OG
Description: Cells (1×10^5) were washed twice and resuspended in buffer before addition of grB-biotin or grB-OG in a final volume of 20 μl for a 30-60 min incubation and washed again twice. In the case of grB-biotin, cells were then incubated with streptavidin-cychrome for 20 min and washed twice. In order to measure cell surface binding, all steps of the binding assay were carried out at 4° C. to prevent intracellular uptake of grB. 0.1% BSA/PBS buffer was used throughout the procedure. All steps of the grB uptake assay were carried out at 37° C. Flow cytometric analysis was performed on a Becton Dickinson FACScanθ flow cytometer equipped with an argon-ion laser with 15 mW of excitation at 488 nm. Emission wavelengths were detected through the FL1 and FL3 channel for grB-OG and grB-biotin, respectively. Data were acquired on 10,000 cells per sample with light scatter signals at linear gain and fluorescence signals at logarithmic gain. Results are presented as the relative MFI, which represents the MFI of the grB-labeled population minus the MFI of the unlabeled population. M6P at 20 mM was added to cells for 15 min at 37° C. before the addition of labeled grB.

[4] = test system: AD containing a β-galactosidase insert; assay: Infection of AD containing a β-galactosidase insert; type: cell-based
[5] = target: cell surface MPR on Jurkat cells; assay: cell-based or functional assay
[6] = preincubation of grB with soluble CI-MPR, Jurkat cells (data not shown)

With O=C[C@H](O)[C@@H](O)[C@H](O)[C@H](O)COP(=O)(O)O [D-glucose 6-phosphate, reference compound] the “percentage of TUNEL positive cells after incubation with grB and AD” value (from here on “percentage of TUNEL positive cells”) (Jurkat cells [1]; 3 hr, Jurkat cells) was 60%, the “percentage of annexin V positive cells after incubation with grB and AD” value (“percentage of annexin V positive cells” for short) (Jurkat cells [1]; 3 hr, Jurkat cells) was 41% and the “concentrations at which inhibitory effect on grB binding was evident” value (Jurkat cells [2]; labeled grB, 4° C.) was “above 25 mM”. For the same molecule, the “effect on grB binding” value (Jurkat cells [2]) was “slight inhibitory effect”.
For O=C[C@H](O)[C@@H](O)[C@H](O)[C@H](O)CO [D-glucose, reference compound], the “percentage of TUNEL positive cells” value (Jurkat cells [1]; 3 hr, Jurkat cells) was 66%, the “percentage of annexin V positive cells” value (Jurkat cells [1]; 3 hr, Jurkat cells) was 40% and the “effect on grB binding” value (Jurkat cells [2]) was “no effect”.
With O=C[C@@H](O)[C@@H](O)[C@H](O)[C@H](O)CO [D-mannose, reference compound] the “percentage of TUNEL positive cells” value (Jurkat cells [1]; 3 hr, Jurkat cells) was 52%, the “percentage of annexin V positive cells” value (Jurkat cells [1]; 3 hr, Jurkat cells) was 32% and the “effect on grB binding” value (Jurkat cells [2]) was “no effect”.
For O=C[C@@H](O)[C@@H](O)[C@H](O)[C@H](O)COP(=O)(O)O [M6P, mannose 6-phosphate], the IC50 [3] was over 25000 µM, the “concentration that markedly reduced in a dose-dependent manner the percentage of TUNEL or annexin V positive cells” value (Jurkat cells [1]; Jurkat cells, grB and AD, 3 hr) was at least 200 µM and the “uptake of grB (grB detected within the cells)” value (CI-MPR^+ cells) was “essentially no grB could be detected within the cells”. For the same molecule, the “binding of grB to the MPRs” value (MPRs in all cell lines) was “significantly reduced binding”, the “binding of grB to Jurkat cells” value (Jurkat cells [2]; M6P at 20 mM, 4° C.) was “considerably reduced binding” and the IC50 (Jurkat cells [2]; labeled grB, 4° C., flow cytometry, Jurkat cells (FIG. 3A), read-out: half-maximal inhibition of binding of grB) was 1000 µM. For the same molecule, the “effect on infection of AD containing a β-galactosidase insert” value [4] was “No effect”.
“dephosphorylated grB: grB treated with calf intestinal alkaline phosphatase in phosphate-free buffer” was tested, and the TUNEL positive cells (Jurkat cells [1]; Jurkat cells) was “Less than 5%”.
“dephosphorylated human granzyme B (treated with calf intestinal alkaline phosphatase in phosphate-free buffer) (from UniProt P10144 21-247) (enzyme)” gave a TUNEL positive Jurkat cells after 3 hr with phosphatase-treated grB and AD [5] of under 5%.
In the case of “grB pretreated with alkaline phosphatase in phosphate-containing buffer: control grB treated with phosphatase in a phosphate-containing buffer to inhibit phosphatase activity”, the TUNEL positive cells (Jurkat cells [1]; Jurkat cells) is reported as 50%.
For “human granzyme B purified from the cytolytic granules of YT-Indy cells (from UniProt P10144 21-247) (enzyme)”, the TUNEL positive Jurkat cells after 3 hr with grB (pretreated with alkaline phosphatase in phosphate-containing buffer) and AD [5] was 50%.
For “soluble CI-MPR: Human soluble cation-independent mannose 6-phosphate receptor (Valenzano et al., 1995)”, the “concentration that markedly reduced in a dose-dependent manner grB/AD-mediated apoptosis” value (Jurkat cells [1]; [6]) was at least 100 µg/mL and the “concentration that markedly reduced in a dose-dependent manner the cell surface binding of grB” value (Jurkat cells [2]; [6]) was at least 100 µg/mL.
